Source: patent publication US10632106B2, “Methods of cancer treatment with 2-(1′H-Indole-3′-carbonyl)-thiazole-4-carboxylic acid methyl ester” (Ariagen, Inc., priority 2009, dated 2020)

Legend:
Type in all cases: in vivo
[1] = tested on: Ketr-3 (human kidney cancer) xenografts; assay: Ketr-3 xenograft growth inhibition; conditions: ITE 100-200 mg/kg i.p. once daily
Experimental: (§1) All the procedures related to animal handling, care, and the treatment in the study were performed following guidelines of KeyGen Biotechn Co., Ltd. (Nanjing, China), a contract research organization we hired, based on the guidance of the Association for Assessment and Accreditation of Laboratory Animal Care (AAALAC). Animals were checked for any effects of tumor growth and drug treatment on normal behavior such as mobility, food and water consumption, body weight gain/loss (bodyweights were measured every two days), eye/hair matting, and any other abnormal effect. Death and observed clinical signs were recorded. Individual animals with a tumor volume exceeding 3,000 mm^3 or animals of a group with a mean tumor volume exceeding 2,000 mm^3 were euthanized. In addition, animals showing signs of severe distress and/or pain or losing the capability of accessing adequate food or water were humanely sacrificed.
(§2) Cell lines HCT116, Siha, MFC were cultured in DMEM medium (high glucose) supplemented with 10% fetal bovine serum (FBS), SW116 and T24 in RPMI-1640 medium with 10% FBS, M14 and A375 in DMEM medium (high glucose) with 10% calf serum (CS), SGC7901 and Ketr-3 in RPMI-1640 medium with 10% CS, and CFPAC-1 in IMDM medium with 10% FBS. All of the cells were cultured, in the presence of 100 U/ml penicillin and 100 μg/ml streptomycin, at 37° C. in an atmosphere of 5% CO2 in air. […] The cells growing in an exponential phase were harvested and counted for tumor inoculation. Cell lines 5180 and U14 were maintained in ascites (peritoneal cavity fluid) of mice and were harvested and counted for tumor inoculation. […]
(§3) Tumor volume was measured every two days in two dimensions using a caliper and the volume was calculated with a formula of: V=0.5 a×b^2, where a and b are the long and short diameter (in mm) of a tumor, respectively. […] The TGD was calculated as: TGD=T−C, where T was the time (in days) required for tumors in a drug treated group to reach a predetermined mean tumor volume and C the time (in days) in the control group to reach the same volume. […]

[2] = tested on: SW116 (human colon cancer) xenografts; assay: SW116 xenograft growth inhibition; conditions: ITE 100-200 mg/kg i.p. once daily
Experimental: as §1, §2, §3

[3] = tested on: S180 (mouse soft tissue cancer/sarcoma) homografts; assay: S180 homograft (syngeneic) growth inhibition in ICR mice; conditions: ITE 200 mg/kg i.p. once daily
Experimental: as §1, §2, §3

[4] = end of therapy relative to beginning

SMILES: COC(=O)c1csc(C(=O)c2c[nH]c3ccccc23)n1 [ITE, 2-(1′H-indole-3′-carbonyl)-thiazole-4-carboxylic acid methyl ester]
- TGD ([1]; TGD at Vol. 500): 9 days
- TGI (%) ([1]; TGI at day 28, TGI=(1−ΔT/ΔC)×100%): 74%
- Weight Loss [1, 4]: 13%
- TGD ([2]; TGD at Vol. 1,000): 9 days
- TGI (%) ([2]; TGI at day 20, TGI=(1−ΔT/ΔC)×100%): 67%
- Weight Loss [2, 4]: 15%
- TGD ([3]; TGD at Vol. 2,000): 1.5 days
- TGI (%) ([3]; TGI at day 8, TGI=(1−ΔT/ΔC)×100%): 33%
- Weight Loss [3, 4]: 9%
